From the NIST ThermoML archive (doi:10.1016/j.jct.2012.06.012)

Test: xn = mol fraction of the nth substance listed
Details: Liquid, Vibrating tube method

CCCCCCCCCC [decane] + CCO
Details	mass density [kg/m3]
323 K, 1000 kPa, x2 = 0.1011	707.24
323 K, 2000 kPa, x2 = 0.1011	708.19
323 K, 3000 kPa, x2 = 0.1011	709.13
323 K, 4000 kPa, x2 = 0.1011	710.05
323 K, 5000 kPa, x2 = 0.1011	710.96
323 K, 6000 kPa, x2 = 0.1011	711.86
323 K, 7000 kPa, x2 = 0.1011	712.75
323 K, 8000 kPa, x2 = 0.1011	713.62
323 K, 9000 kPa, x2 = 0.1011	714.5
323 K, 10000 kPa, x2 = 0.1011	715.37
323 K, 11000 kPa, x2 = 0.1011	716.23
323 K, 12000 kPa, x2 = 0.1011	717.09
323 K, 13000 kPa, x2 = 0.1011	717.94
323 K, 14000 kPa, x2 = 0.1011	718.79
323 K, 15000 kPa, x2 = 0.1011	719.61
323 K, 16000 kPa, x2 = 0.1011	720.42
323 K, 17000 kPa, x2 = 0.1011	721.22
323 K, 18000 kPa, x2 = 0.1011	722.01
323 K, 19000 kPa, x2 = 0.1011	722.76
323 K, 20000 kPa, x2 = 0.1011	723.51
323.03 K, 1000 kPa, x2 = 0.7526	729.67
323.03 K, 2000 kPa, x2 = 0.7526	730.66
323.03 K, 3000 kPa, x2 = 0.7526	731.64
323.03 K, 4000 kPa, x2 = 0.7526	732.61
323.03 K, 5000 kPa, x2 = 0.7526	733.56
323.03 K, 6000 kPa, x2 = 0.7526	734.49
323.03 K, 7000 kPa, x2 = 0.7526	735.43
323.03 K, 8000 kPa, x2 = 0.7526	736.37
323.03 K, 9000 kPa, x2 = 0.7526	737.3
323.03 K, 10000 kPa, x2 = 0.7526	738.24
323.03 K, 11000 kPa, x2 = 0.7526	739.17
323.03 K, 12000 kPa, x2 = 0.7526	740.08
323.03 K, 13000 kPa, x2 = 0.7526	741
323.03 K, 14000 kPa, x2 = 0.7526	741.9
323.03 K, 15000 kPa, x2 = 0.7526	742.78
323.03 K, 16000 kPa, x2 = 0.7526	743.66
323.03 K, 17000 kPa, x2 = 0.7526	744.51
323.03 K, 18000 kPa, x2 = 0.7526	745.35
323.03 K, 19000 kPa, x2 = 0.7526	746.18
323.03 K, 20000 kPa, x2 = 0.7526	746.98
323.06 K, 1000 kPa, x2 = 0.2507	709.58
323.06 K, 2000 kPa, x2 = 0.2507	710.54
323.06 K, 3000 kPa, x2 = 0.2507	711.48
323.06 K, 4000 kPa, x2 = 0.2507	712.41
323.06 K, 5000 kPa, x2 = 0.2507	713.33
323.06 K, 6000 kPa, x2 = 0.2507	714.23
323.06 K, 7000 kPa, x2 = 0.2507	715.12
323.06 K, 8000 kPa, x2 = 0.2507	716.01
323.06 K, 9000 kPa, x2 = 0.2507	716.9
323.06 K, 10000 kPa, x2 = 0.2507	717.78
323.06 K, 11000 kPa, x2 = 0.2507	718.65
323.06 K, 12000 kPa, x2 = 0.2507	719.53
323.06 K, 13000 kPa, x2 = 0.2507	720.39
323.06 K, 14000 kPa, x2 = 0.2507	721.24
323.06 K, 15000 kPa, x2 = 0.2507	722.08
323.06 K, 16000 kPa, x2 = 0.2507	722.91
323.06 K, 17000 kPa, x2 = 0.2507	723.72
323.06 K, 18000 kPa, x2 = 0.2507	724.51
323.06 K, 19000 kPa, x2 = 0.2507	725.28
323.06 K, 20000 kPa, x2 = 0.2507	726.04
332.86 K, 1000 kPa, x2 = 0.0937	699.25
332.86 K, 1000 kPa, x2 = 0.9014	736.03
332.86 K, 2000 kPa, x2 = 0.0937	700.26
332.86 K, 2000 kPa, x2 = 0.9014	737.11
332.86 K, 3000 kPa, x2 = 0.0937	701.26
332.86 K, 3000 kPa, x2 = 0.9014	738.18
332.86 K, 4000 kPa, x2 = 0.0937	702.24
332.86 K, 4000 kPa, x2 = 0.9014	739.22
332.86 K, 5000 kPa, x2 = 0.0937	703.21
332.86 K, 5000 kPa, x2 = 0.9014	740.19
332.86 K, 6000 kPa, x2 = 0.0937	704.16
332.86 K, 6000 kPa, x2 = 0.9014	741.29
332.86 K, 7000 kPa, x2 = 0.0937	705.1
332.86 K, 7000 kPa, x2 = 0.9014	742.31
332.86 K, 8000 kPa, x2 = 0.0937	706.03
332.86 K, 8000 kPa, x2 = 0.9014	743.33
332.86 K, 9000 kPa, x2 = 0.0937	706.94
332.86 K, 9000 kPa, x2 = 0.9014	744.36
332.86 K, 10000 kPa, x2 = 0.0937	707.85
332.86 K, 10000 kPa, x2 = 0.9014	745.34
332.86 K, 11000 kPa, x2 = 0.0937	708.77
332.86 K, 11000 kPa, x2 = 0.9014	746.35
332.86 K, 12000 kPa, x2 = 0.0937	709.67
332.86 K, 12000 kPa, x2 = 0.9014	747.33
332.86 K, 13000 kPa, x2 = 0.0937	710.57
332.86 K, 13000 kPa, x2 = 0.9014	748.31
332.86 K, 14000 kPa, x2 = 0.0937	711.45
332.86 K, 14000 kPa, x2 = 0.9014	749.26
332.86 K, 15000 kPa, x2 = 0.0937	712.31
332.86 K, 15000 kPa, x2 = 0.9014	750.21
332.86 K, 16000 kPa, x2 = 0.0937	713.17
332.86 K, 16000 kPa, x2 = 0.9014	751.15
332.86 K, 17000 kPa, x2 = 0.0937	714.01
332.86 K, 17000 kPa, x2 = 0.9014	752.07
332.86 K, 18000 kPa, x2 = 0.0937	714.82
332.86 K, 18000 kPa, x2 = 0.9014	752.96
332.86 K, 19000 kPa, x2 = 0.0937	715.64
332.86 K, 19000 kPa, x2 = 0.9014	753.84
332.86 K, 20000 kPa, x2 = 0.0937	716.42
332.86 K, 20000 kPa, x2 = 0.9014	754.71
332.87 K, 1000 kPa, x2 = 0.1011	699.31
332.87 K, 1000 kPa, x2 = 0.4963	707.52
332.87 K, 2000 kPa, x2 = 0.1011	700.32
332.87 K, 2000 kPa, x2 = 0.4963	708.54
332.87 K, 3000 kPa, x2 = 0.1011	701.31
332.87 K, 3000 kPa, x2 = 0.4963	709.55
332.87 K, 4000 kPa, x2 = 0.1011	702.29
332.87 K, 4000 kPa, x2 = 0.4963	710.55
332.87 K, 5000 kPa, x2 = 0.1011	703.26
332.87 K, 5000 kPa, x2 = 0.4963	711.53
332.87 K, 6000 kPa, x2 = 0.1011	704.21
332.87 K, 6000 kPa, x2 = 0.4963	712.5
332.87 K, 7000 kPa, x2 = 0.1011	705.15
332.87 K, 7000 kPa, x2 = 0.4963	713.48
332.87 K, 8000 kPa, x2 = 0.1011	706.08
332.87 K, 8000 kPa, x2 = 0.4963	714.46
332.87 K, 9000 kPa, x2 = 0.1011	707
332.87 K, 9000 kPa, x2 = 0.4963	715.43
332.87 K, 10000 kPa, x2 = 0.1011	707.91
332.87 K, 10000 kPa, x2 = 0.4963	716.38
332.87 K, 11000 kPa, x2 = 0.1011	708.83
332.87 K, 11000 kPa, x2 = 0.4963	717.33
332.87 K, 12000 kPa, x2 = 0.1011	709.73
332.87 K, 12000 kPa, x2 = 0.4963	718.27
332.87 K, 13000 kPa, x2 = 0.1011	710.62
332.87 K, 13000 kPa, x2 = 0.4963	719.21
332.87 K, 14000 kPa, x2 = 0.1011	711.51
332.87 K, 14000 kPa, x2 = 0.4963	720.13
332.87 K, 15000 kPa, x2 = 0.1011	712.38
332.87 K, 15000 kPa, x2 = 0.4963	721.03
332.87 K, 16000 kPa, x2 = 0.1011	713.23
332.87 K, 16000 kPa, x2 = 0.4963	721.92
332.87 K, 17000 kPa, x2 = 0.1011	714.07
332.87 K, 17000 kPa, x2 = 0.4963	722.8
332.87 K, 18000 kPa, x2 = 0.1011	714.88
332.87 K, 18000 kPa, x2 = 0.4963	723.66
332.87 K, 19000 kPa, x2 = 0.1011	715.69
332.87 K, 19000 kPa, x2 = 0.4963	724.5
332.87 K, 20000 kPa, x2 = 0.1011	716.47
332.87 K, 20000 kPa, x2 = 0.4963	725.32
332.91 K, 1000 kPa, x2 = 0.7526	720.88
332.91 K, 2000 kPa, x2 = 0.7526	721.93
332.91 K, 3000 kPa, x2 = 0.7526	722.96
332.91 K, 4000 kPa, x2 = 0.7526	723.98
332.91 K, 5000 kPa, x2 = 0.7526	725
332.91 K, 6000 kPa, x2 = 0.7526	726.01
332.91 K, 7000 kPa, x2 = 0.7526	727.02
332.91 K, 8000 kPa, x2 = 0.7526	728.03
332.91 K, 9000 kPa, x2 = 0.7526	729.03
332.91 K, 10000 kPa, x2 = 0.7526	729.99
332.91 K, 11000 kPa, x2 = 0.7526	730.98
332.91 K, 12000 kPa, x2 = 0.7526	731.94
332.91 K, 13000 kPa, x2 = 0.7526	732.91
332.91 K, 14000 kPa, x2 = 0.7526	733.85
332.91 K, 15000 kPa, x2 = 0.7526	734.78
332.91 K, 16000 kPa, x2 = 0.7526	735.69
332.91 K, 17000 kPa, x2 = 0.7526	736.6
332.91 K, 18000 kPa, x2 = 0.7526	737.48
332.91 K, 19000 kPa, x2 = 0.7526	738.35
332.91 K, 20000 kPa, x2 = 0.7526	739.19
332.97 K, 1000 kPa, x2 = 0.2507	701.45
332.97 K, 2000 kPa, x2 = 0.2507	702.46
332.97 K, 3000 kPa, x2 = 0.2507	703.46
332.97 K, 4000 kPa, x2 = 0.2507	704.44
332.97 K, 5000 kPa, x2 = 0.2507	705.41
332.97 K, 6000 kPa, x2 = 0.2507	706.36
332.97 K, 7000 kPa, x2 = 0.2507	707.31
332.97 K, 8000 kPa, x2 = 0.2507	708.26
332.97 K, 9000 kPa, x2 = 0.2507	709.21
332.97 K, 10000 kPa, x2 = 0.2507	710.12
332.97 K, 11000 kPa, x2 = 0.2507	711.06
332.97 K, 12000 kPa, x2 = 0.2507	711.97
332.97 K, 13000 kPa, x2 = 0.2507	712.88
332.97 K, 14000 kPa, x2 = 0.2507	713.78
332.97 K, 15000 kPa, x2 = 0.2507	714.65
332.97 K, 16000 kPa, x2 = 0.2507	715.53
332.97 K, 17000 kPa, x2 = 0.2507	716.38
332.97 K, 18000 kPa, x2 = 0.2507	717.21
332.97 K, 19000 kPa, x2 = 0.2507	718.03
332.97 K, 20000 kPa, x2 = 0.2507	718.82
